Test [1] relates to Human gastric cancer cells (MKN-45). Nature of the test: Inhibitory activity against the proliferation of human gastric cancer cells (MKN-45). The class given is cell-based. Particulars: 72 h, MKN-45, 1% FBS RPMI1640, 3 days, Cell Counting Kit-8. Summed up: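 MKN-45 cells seeded overnight in RPMI1640 with 1% FBS, then exposed to compound for 3 days at 37° C, 5% CO2. Viability read with CCK-8 after about 1.5 hrs, absorbance at 450 nm (reference 660 nm).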
In general terms: Formazan colour is commonly taken as a measure of viable cells.

The target in test [2] is T1, His6-HGFR (HGFR cytoplasmic domain) (Homo sapiens, UniProt P08581).
T1 construct: made in house; host or cells: Sf9 insect cells (Spodoptera frugiperda), baculovirus, pFastBac-HT vector
T1 sequence (P08581 956-1390 limits assumed): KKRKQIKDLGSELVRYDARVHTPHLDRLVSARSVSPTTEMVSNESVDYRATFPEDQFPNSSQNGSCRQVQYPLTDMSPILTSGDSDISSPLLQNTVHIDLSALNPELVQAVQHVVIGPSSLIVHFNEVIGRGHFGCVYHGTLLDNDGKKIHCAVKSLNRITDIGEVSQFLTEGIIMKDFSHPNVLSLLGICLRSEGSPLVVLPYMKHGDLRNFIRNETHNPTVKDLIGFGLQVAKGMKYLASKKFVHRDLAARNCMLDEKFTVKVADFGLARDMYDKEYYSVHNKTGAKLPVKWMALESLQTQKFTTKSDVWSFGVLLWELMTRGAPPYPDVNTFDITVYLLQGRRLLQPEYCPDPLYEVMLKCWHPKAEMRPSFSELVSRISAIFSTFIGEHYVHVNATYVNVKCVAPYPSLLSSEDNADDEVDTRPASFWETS
Nature of the test: Inhibitory activity against HGFR tyrosine kinase activity (HTRF). The class given is biochemical. Particulars: biotin-poly(GT), ATP, 30° C. 10 min. An excerpt:
The cytoplasmic domain of HGFR (Genbank Accession No. J02958) is a 1.3 kb DNA fragment beginning with Lys974 and including a stop codon, and described by Park et al. (Proc. Natl. Acad. Sci. U.S.A. 84(18), 6379-6383, 1987). The DNA fragment was isolated from the human placental cDNA library (purchased from Clontech) by PCR (TaKaRa Ex Taq™ Kit, purchased from TaKaRa) using two kinds of primers (SEQ ID NO: 1,5′-[…]-3′ and SEQ ID NO: 2,5′-[…]-3′, purchased from Invitrogen). The DNA fragment was cloned into a baculovirus transplace vector (pFastBac™-HT (purchased from GIBCO BRL)) to produce a recombinant construct. […] EGFR was purchased from Sigma (Production No. E-2645).
To the suspension of Sf9 cells (3×10^8 cells) in SF-900II medium (purchased from Invitrogen) containing 2% FBS was added a solution of HGFR transfected baculovirus above (4 ml), followed by a shaking culture at 27° C. for 48 hrs. The cells infected with the HGFR transfected baculovirus were centrifuged at 1,000 rpm, 4° C. for 5 min to remove the supernatant. The precipitated infected cells were suspended in 80 ml of ice-cold PBS, and centrifuged at 1,000 rpm, 4° C. for 5 min to remove the supernatant. The precipitated infected cells were suspended in 40 ml of ice-cold Lysis Buffer (50 mM Tris-HCl (pH 8.5), 5 mM 2-mercaptoethanol, 100 mM KCl, 1 mM PMSF and 1% (v/v) NP-40). The suspension was centrifuged at 12,000 rpm, 4° C. for 30 min to provide a supernatant.
The supernatant was loaded onto an Ni-NTA agarose column (3 ml, purchased from Qiagen) equilibrated with 30 ml of Buffer A (20 mM Tris-HCl (pH 8.5), 5 mM 2-mercaptoethanol, 500 mM KCl, 20 mM imidazole and 10% (v/v) glycerol). The column was washed with 30 ml of Buffer A, 6 ml of Buffer B (20 mM Tris-HCl (pH 8.5), 5 mM 2-mercaptoethanol, 1 M KCl, and 10% (v/v) glycerol) and 6 ml of Buffer A in this order. Then, the column was eluted with 6 ml of Buffer C (20 mM Tris-HCl (pH 8.5), 5 mM 2-mercaptoethanol, 100 mM KCl, 100 mM imidazole, and 10% (v/v) glycerol) to provide a fraction. The fraction was entrapped in a dialysis membrane (purchased from Spectrum Laboratories), dialyzed at 4° C. overnight with 1 L of dialysis buffer (20 mM Tris-HCl (pH 7.5), 10% (v/v) glycerol, 1 mM dithiothreitol, 0.1 mM Na3VO4 and 0.1 mM EGTA), and stored at −80° C. until used. […] The VEGFR2 cytoplasmic domain, the FGFR1 cytoplasmic domain, and the PDGFRβ cytoplasmic domain were fused with six histidine at the N terminus by the similar method to produce respective recombinant proteins (His6-VEGFR2, His6-FGFR1, and His6-PDGFRβ).
To each well of a 96-well round plate (purchased from NUNC, Production No. 163320) were added 10 μl of a solution for kinase reaction (200 mM Hepes (pH 7.4), 80 mM MgCl2, 16 mM MnCl2 and 2 mM Na3VO4), 250 ng of biotinylated poly(Glu4: Tyr1) (biotin-poly(GT), purchased from Japan Schering) (6 μl, 15-fold diluted with distilled water), 30 ng of His6-HGFR (10 μl, 60-fold diluted with 0.4% BSA) and a test substance dissolved in dimethylsulfoxide (4 μl, 100-fold diluted with 0.1% BSA) to mess up to 30 μl. To the well was added 10 μl of 4 μM ATP (purchased from Sigma) diluted with distilled water to incubate at 30° C. for 10 min, followed by adding 10 μl of 500 mM EDTA (pH 8.0) (purchased from Wako Pure Chemicals) to provide a kinase reaction solution.
The tyrosine-phosphorylated biotin-poly(GT) was detected using the Homogenous Time-Resolved Fluorescence (HTRF) method (Analytical Biochemistry, 269, 94-104, 1999).
In general terms: In TR-FRET formats the signal depends on donor and acceptor labels being close together.

By IC50 is commonly meant the concentration that gives 50% inhibition. A lower IC50 goes with higher potency. For the molecule `CCN(CC)CCCN(C)C(=O)Nc1cc(Oc2ccc(NC(=O)C3(C(=O)Nc4ccc(F)cc4)CC3)cc2F)ccn1` [Example 44, N-(4-{[2-({[[3-(Diethylamino)propyl](methyl)amino]carbonyl}amino)pyridin-4-yl]oxy}-3-fluorophenyl)-N′-(4-fluorophenyl)cyclopropane-1,1-dicarboxamide], the IC50 in test [1] was found to be 54 nM; in test [2], 91 nM.
On to `CN(C)[C@@H]1CCN(C(=O)Nc2cc(Oc3ccc(NC(=O)C4(C(=O)Nc5ccccc5)CC4)c(F)c3)ccn2)C1` [Example 59, N-(4-{[2-({[(3R)-3-(Dimethylamino)pyrrolidin-1-yl]carbonyl}amino)pyridin-4-yl]oxy}-2-fluorophenyl)-N′-phenylcyclopropane-1,1-dicarboxamide], for which the IC50 is 44 nM in test [1] and 75 nM in test [2].
The matching figures for `CN1CCC(N2CCN(C(=O)Nc3cc(Oc4ccc(NC(=O)C5(C(=O)Nc6ccc(F)cc6)CC5)cc4)ccn3)CC2)CC1` [Example 31, N-(4-Fluorophenyl)-N′-(4-{[2-({[4-(1-methylpiperidin-4-yl)piperazin-1-yl]carbonyl}amino)pyridin-4-yl]oxy}phenyl)cyclopropane-1,1-dicarboxamide]: 31 nM and 62 nM.
The matching figures for `CN(C)C1CCN(C(=O)Nc2cc(Oc3cc(F)c(NC(=O)C4(C(=O)Nc5ccc(F)cc5)CC4)cc3F)ccn2)CC1` [Example 103, N-(4-{[2-({[4-(Dimethylamino)piperidin-1-yl]carbonyl}amino)pyridin-4-yl]oxy}-2,5-difluorophenyl)-N′-(4-fluorophenyl)cyclopropane-1,1-dicarboxamide]: 5.8 nM and 57 nM.
As for `CN(C)[C@@H]1CCN(C(=O)Nc2cc(Oc3ccc(NC(=O)C4(C(=O)Nc5ccc(F)cc5)CC4)cc3)ccn2)C1` [Example 42, N-(4-{[2-({[(3R)-3-(Dimethylamino)pyrrolidin-1-yl]carbonyl}amino)pyridin-4-yl]oxy}phenyl)-N′-(4-fluorophenyl)cyclopropane-1,1-dicarboxamide], the IC50 turned out to be 60 nM in test [1] and 57 nM in test [2].
For `CN(C)CCN1CCC(N(C)C(=O)Nc2cc(Oc3ccc(NC(=O)C4(C(=O)Nc5ccc(F)cc5)CC4)cc3)ccn2)CC1` [Example 39, N-(4-{[2-({[{1-[2-(Dimethylamino)ethyl]piperidin-4-yl}(methyl)amino]carbonyl}amino)pyridin-4-yl]oxy}phenyl)-N′-(4-fluorophenyl)cyclopropane-1,1-dicarboxamide], the IC50 came out at 38 nM in test [1] and 100 nM in test [2].
Regarding `O=C(Nc1cc(Oc2ccc(NC(=O)C3(C(=O)Nc4ccc(F)cc4)CC3)cc2)ccn1)N1CCCC1` [Example 69, N-(4-Fluorophenyl)-N′-[4-({2-[(pyrrolidin-1-ylcarbonyl)amino]pyridin-4-yl}oxy)phenyl]cyclopropane-1,1-dicarboxamide], the IC50 in test [1] came out at 77 nM; in test [2], 31 nM.
On to `CN1CCC(N(C)C(=O)Nc2cc(Oc3ccc(NC(=O)C4(C(=O)Nc5ccc(F)cc5)CC4)c(F)c3)ccn2)CC1` [Example 3, N-(2-Fluoro-4-{[2-({[methyl(1-methylpiperidin-4-yl)amino]carbonyl}amino)pyridin-4-yl]oxy}phenyl)-N′-(4-fluorophenyl)cyclopropane-1,1-dicarboxamide], for which the figures for the IC50 in test [1] and in test [2] were 15 nM and 39 nM, respectively.
With `CN(C)C1CN(C2CCN(C(=O)Nc3cc(Oc4ccc(NC(=O)C5(C(=O)Nc6ccc(F)cc6)CC5)cc4F)ccn3)CC2)C1` [Example 21, N-[4-({2-[({4-[3-(Dimethylamino)azetidin-1-yl]piperidin-1-yl}carbonyl)amino]pyridin-4-yl}oxy)-3-fluorophenyl]-N′-(4-fluorophenyl)cyclopropane-1,1-dicarboxamide], the IC50 stood at 27 nM in test [1] and 62 nM in test [2].
Regarding `O=C(Nc1cc(Oc2ccc(NC(=O)C3(C(=O)Nc4ccc(F)cc4)CC3)c(F)c2)ccn1)N1CCC(N2CCNCC2)CC1` [Example 71, N-(4-Fluorophenyl)-N′-{2-fluoro-4-[(2-{[(4-piperazin-1-ylpiperidin-1-yl)carbonyl]amino}pyridin-4-yl)oxy]phenyl}cyclopropane-1,1-dicarboxamide], the IC50 in test [1] amounted to 61 nM; in test [2] it was 121 nM.
On to `CCN1CCC(N(C)C(=O)Nc2cc(Oc3ccc(NC(=O)C4(C(=O)Nc5ccccc5)CC4)c(F)c3)ccn2)CC1` [Example 60, N-(4-{[2-({[(1-Ethylpiperidin-4-yl)(methyl)amino]carbonyl}amino)pyridin-4-yl]oxy}-2-fluorophenyl)-N′-phenylcyclopropane-1′-dicarboxamide], for which the figures for the IC50 in test [1] and in test [2] were 15 nM and 82 nM, respectively.
On to `O=C(Nc1cc(Oc2ccc(NC(=O)C3(C(=O)Nc4ccc(F)cc4)CC3)cc2)ccn1)N1CCC1` [Example 70, N-[4-({2-[(Azetidin-1-ylcarbonyl)amino]pyridin-4-yl}oxy)phenyl]-N′-(4-fluorophenyl)cyclopropane-1,1-dicarboxamide], for which the results for the IC50 in test [1] and in test [2] were 54 nM and 19 nM, respectively.
The matching figures for `O=C(Nc1cc(Oc2ccc(NC(=O)C3(C(=O)Nc4ccc(F)cc4)CC3)cc2F)ccn1)N1CCCC1` [Example 66, N-(4-Fluorophenyl)-N′-[3-fluoro-4-({2-[(pyrrolidin-1-ylcarbonyl)amino]pyridin-4-yl}oxy)phenyl]cyclopropane-1,1′-dicarboxamide]: 31 nM and 20 nM.
The matching figures for `CN(C)C1CCN(C(=O)Nc2cc(Oc3ccc(NC(=O)C4(C(=O)Nc5ccc(F)cc5)CC4)cc3F)ccn2)CC1` [Example 23, N-(4-{[2-({[4-(Dimethylamino)piperidin-1-yl]carbonyl}amino)pyridin-4-yl]oxy}-3-fluorophenyl)-N′-(4-fluorophenyl)cyclopropane-1,1-dicarboxamide]: 36 nM and 45 nM.
For the molecule `CN(C)[C@@H]1CCN(C(=O)Nc2cc(Oc3ccc(NC(=O)C4(C(=O)Nc5ccc(F)cc5)CC4)c(F)c3)ccn2)C1` [Example 47, N-(4-{[2-({[(3R)-3-(Dimethylamino)pyrrolidin-1-yl]carbonyl}amino)pyridin-4-yl]oxy}-2-fluorophenyl)-N′-(4-fluorophenyl)cyclopropane-1,1-dicarboxamide], the IC50 in test [1] was found to be 27 nM; in test [2] it was 83 nM.
For `O=C(Nc1cc(Oc2ccc(NC(=O)C3(C(=O)Nc4ccc(F)cc4)CC3)c(F)c2)ccn1)N1CCC(N2CCCC2)CC1` [Example 4, N-(4-Fluorophenyl)-N′-{2-fluoro-4-[(2-{[(4-pyrrolidin-1-ylpiperidin-1-yl)carbonyl]amino}pyridin-4-yl)oxy]phenyl}cyclopropane-1,1-dicarboxamide], the IC50 worked out at 21 nM in test [1] and 45 nM in test [2].
